# Measurements taken from PubChem BioAssay AID623883 (Johns Hopkins Ion Channel Center, 2012).
# The source made the active and inactive calls.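 The calls were made as follows: active = peak hERG inhibition over 30% at some tested dose, together with a fitted dose response curve; inactive = no hERG inhibition at any dose, or no curve fitted.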
# Biological target: Voltage-gated inwardly rectifying potassium channel KCNH2 (Homo sapiens) (UniProt Q12809)
# Test: hERG channel inhibition, SAR follow-up, selectivity assay for KCNK9 inhibitor project, cell-based, FluxOR thallium flux, concentration-response, set 4 (AID 623883)
# Settings: hERG-expressing cells; for fluorescence ratio, lower = inhibition: at 30 µM (top of the series); for IC50: FluxOR thallium flux fluorescence
# Voltage-gated inwardly rectifying potassium channel KCNH2 (Homo sapiens), sequence (Q12809 whole entry, looked up): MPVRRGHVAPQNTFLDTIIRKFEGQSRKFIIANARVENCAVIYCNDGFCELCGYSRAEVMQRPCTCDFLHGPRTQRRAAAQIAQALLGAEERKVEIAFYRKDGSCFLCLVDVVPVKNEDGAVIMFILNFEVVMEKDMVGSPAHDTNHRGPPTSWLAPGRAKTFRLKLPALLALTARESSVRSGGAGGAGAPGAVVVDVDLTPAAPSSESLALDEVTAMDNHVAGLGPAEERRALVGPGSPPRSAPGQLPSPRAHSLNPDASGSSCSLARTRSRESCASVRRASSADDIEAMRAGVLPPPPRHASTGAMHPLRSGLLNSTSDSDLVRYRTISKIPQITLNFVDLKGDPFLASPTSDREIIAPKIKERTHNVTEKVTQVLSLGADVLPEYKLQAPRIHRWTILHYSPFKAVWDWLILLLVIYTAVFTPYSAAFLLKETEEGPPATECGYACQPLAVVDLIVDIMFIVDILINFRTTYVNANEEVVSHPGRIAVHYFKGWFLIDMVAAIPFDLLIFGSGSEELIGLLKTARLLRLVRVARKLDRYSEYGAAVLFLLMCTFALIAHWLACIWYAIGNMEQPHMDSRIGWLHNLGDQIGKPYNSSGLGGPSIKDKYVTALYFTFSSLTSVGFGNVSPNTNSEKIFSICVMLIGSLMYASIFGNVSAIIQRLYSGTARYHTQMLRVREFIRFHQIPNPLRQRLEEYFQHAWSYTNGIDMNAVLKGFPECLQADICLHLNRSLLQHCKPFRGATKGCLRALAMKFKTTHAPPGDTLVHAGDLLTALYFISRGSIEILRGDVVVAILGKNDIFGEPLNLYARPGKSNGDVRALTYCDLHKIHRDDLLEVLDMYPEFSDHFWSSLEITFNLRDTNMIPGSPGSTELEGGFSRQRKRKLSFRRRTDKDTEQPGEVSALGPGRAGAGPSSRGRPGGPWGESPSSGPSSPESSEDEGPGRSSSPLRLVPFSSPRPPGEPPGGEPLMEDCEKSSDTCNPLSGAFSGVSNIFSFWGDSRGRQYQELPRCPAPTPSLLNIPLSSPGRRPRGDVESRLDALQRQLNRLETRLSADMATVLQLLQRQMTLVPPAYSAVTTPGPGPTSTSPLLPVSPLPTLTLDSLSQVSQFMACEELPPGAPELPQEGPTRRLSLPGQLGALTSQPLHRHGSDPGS
Compound,"fluorescence ratio, lower = inhibition",IC50 [µM]
C[C@H](C1CCCCC1)n1c(-c2ccsc2)n[nH]c1=S,inactive,–
CC(C1C[C@H]2CCC1C2)n1c(-c2ccsc2)n[nH]c1=S (stereo not given in full),inactive,–
COc1cccc(-c2n[nH]c(=S)n2[C@H](C)C2CCCCC2)c1,inactive,–
C[C@H]([C@@H]1CC2CC[C@H]1C2)n1c(-c2ccsc2)n[nH]c1=S,inactive,0.839
COc1cccc(-c2nnc(SSc3nnc(-c4cccc(OC)c4)n3C(C)C3CC4CCC3C4)n2C(C)C2CC3CCC2C3)c1 (stereo not given),–,0.398
CC(C1CC2CCC1C2)n1c(SCCc2cccc(O)c2)nnc1-c1ccco1 (stereo not given),–,8.05
COc1ccc(NC(=O)CSc2nnc(-c3ccco3)n2C(C)C2CC3CCC2C3)cc1OC (stereo not given),–,25.8
CC(C1CC2CCC1C2)n1c(SCCc2ccccn2)nnc1-c1ccco1 (stereo not given),–,12.6
CC([C@@H]1CC2CC[C@H]1C2)n1c(-c2ccsc2)n[nH]c1=S (stereo not given in full),inactive,–
COc1cccc(-c2n[nH]c(=S)n2[C@H](C)[C@@H]2CC3CC[C@H]2C3)c1,inactive,–
CC(C1CCN(C)CC1)n1c(-c2ccco2)n[nH]c1=S (stereo not given),inactive,–
CC(C1CC2CCC1C2)n1c(-c2ccco2)nn(CCc2ccncc2)c1=S (stereo not given),inactive,–
COc1ccc(CSc2nnc(-c3ccco3)n2C(C)C2CC3CCC2C3)cc1OC (stereo not given),–,18.2
CCCC(=O)C1CCN(c2ncnc3c2CN(C(=O)c2ccc(-c4ccccc4)cc2)CC3)CC1,–,7.68
COc1ccc(C(=O)CCSc2nnc(-c3ccco3)n2C(C)C2CC3CCC2C3)cc1OC (stereo not given),–,15.8
C[C@H]([C@@H]1CC2CC[C@H]1C2)n1c(-c2ccccc2F)n[nH]c1=S,inactive,–
C[C@@H]([C@@H]1CC2CC[C@H]1C2)n1c(-c2ccco2)n[nH]c1=S,inactive,–
C[C@H]([C@@H]1CC2CC[C@H]1C2)n1c(-c2ccco2)n[nH]c1=S,inactive,–
CC(C1CC2CCC1C2)n1c(SCCN2CCOCC2)nnc1-c1ccco1 (stereo not given),inactive,–
C[C@@H]([C@@H]1CC2CC[C@H]1C2)n1c(-c2ccsc2)n[nH]c1=S,inactive,–
CC(C1CC2CCC1C2)n1c(N)nnc1-c1ccco1 (stereo not given),inactive,–
CC(C1CC2CCC1C2)n1c(SCC(=O)N2CCN(C)CC2)nnc1-c1ccco1 (stereo not given),inactive,–
COc1cccc(CCSc2nnc(-c3ccco3)n2C(C)C2CC3CCC2C3)c1 (stereo not given),–,4.52
C[C@H](C1CCCCC1)n1c(-c2ccccc2F)n[nH]c1=S,inactive,–
